Target: CDK2/Cyclin E1 (Homo sapiens, UniProt P24941)
Assay: CDK2/Cyclin E1 Caliper LabChip EZ Reader mobility shift assay
Format: biochemical
Parameters: purchased Eurofins 14-475
Conditions: read-out: Caliper Assay (CDK2/CCNE1): IC50
Description: Inhibition of CDK2/Cyclin E1 activity in the presence of compounds of the present disclosure was evaluated using a Caliper LabChip® EZ Reader mobility shift assay. In the assay, CDK2/Cyclin E1 (Eurofins, 14-475) catalyzed the phosphorylation of a fluorescently tagged peptide 5-FAM-QSPKKG-CONH2 (PerkinElmer, FL Peptide 18) which induced a difference in capillary electrophoresis mobility. The peptide substrate and product were measured, and the conversion ratio was used to determine the inhibition (as % activity and IC50 values) of CDK2/Cyclin E1. Reactions contained 50 mM HEPES pH 7.5, 10 mM MgCl2, 1 mM EDTA, 2 mM DTT, 0.01% Brij35, 0.5 mg/mL BSA, 0.1% DMSO, 2.5 nM CDK2/Cyclin E1, 100 μM ATP, and 1.5 μM fluorescent peptide substrate.
Dose titrations of inhibitors in 100% DMSO were combined with 3.25 nM CDK2/Cyclin E1 and 130 μM of ATP in reaction buffer. The mixtures were incubated for 30 minutes before the addition of fluorescent peptide substrate to initiate the kinase reaction. The final conditions were 2.5 nM CDK2/Cyclin E1, 100 μM ATP, and 1.5 μM fluorescent peptide. The reactions were stopped after 100 minutes with the addition of EDTA (400 mM final EDTA concentration). The stopped reactions were analyzed on a Caliper LabChip® EZ Reader II. The conversion ratios were normalized to yield % activity, plotted against compound concentration, and fit to a four-parameter equation to determine the IC50 for each compound.

## CNC(=O)[C@@H](NC(=O)[C@@H]1CN(C(=O)c2scnc2C2CC2)CC12CN(C(=O)[C@H]1CC1(C)C)C2)[C@@H](C)OCC1CCCCC1 [I-185A]
  IC50: > 10000 nM

## CC1(C)C[C@@H]1C(=O)N1CC2(CN(C(=O)c3cnn(Cc4ccccc4)c3)C[C@@H]2C(=O)NC2CCCN(C(=O)c3ccccc3)C2)C1 (some centres unmarked) [I-59B]
  IC50: > 10000 nM

## CNC(=O)[C@@H](NC(=O)[C@@H]1CN(C(=O)C2CCNC2)CC12CN(C(=O)[C@H]1CC1(C)C)C2)[C@@H](C)OCc1ccccc1 (stereo partly drawn) [I-70A, (8S)—N-((2S,3R)-3-(benzyloxy)-1-(methylamino)-1-oxobutan-2-yl)-2-((S)-2,2-dimethylcyclopropane-1-carbonyl)-6-(pyrrolidine-3-carbonyl)-2,6-diazaspiro[3.4]octane-8-carboxamide]
  IC50: > 10000 nM

## CNC(=O)[C@@H](NC(=O)[C@H]1CN(C(=O)c2cncs2)CC12CN(C(=O)CC1CC1)C2)[C@@H](C)OCC1CCCCC1 [I-103B]
  IC50: > 10000 nM

## CNC(=O)[C@H](COCc1ccccc1)NC(=O)[C@@H]1CN(C(=O)c2cnn(Cc3ccccc3)c2)CC12CN(C(=O)C(C)(C)C)C2 [I-100A]
  IC50: 1000 to 10000 nM

## CNC(=O)[C@@H](NC(=O)[C@H]1CN(C(=O)c2cnn(Cc3ccccc3)c2)CC12CN(C(=O)[C@H]1CC1(C)C)C2)[C@@H](C)OCC1CCCCCC1 [I-166B]
  IC50: 100 to 1000 nM

## CNC(=O)[C@@H](NC(=O)[C@H]1CN(C(=O)c2cnc[nH]2)CC12CN(C(=O)[C@H]1CC1(C)C)C2)[C@@H](C)OCc1ccccc1 [I-44B]
  IC50: > 10000 nM

## CNC(=O)[C@@H](NC(=O)[C@@H]1CN(C(=O)c2cncs2)CC12CN(C(=O)[C@H]1CC1(C)C)C2)[C@@H](C)OCc1ccccc1 [I-24A, (S)—N-((2S,3R)-3-(benzyloxy)-1-(methylamino)-1-oxobutan-2-yl)-2-((S)-2,2-dimethylcyclopropane-1-carbonyl)-6-(thiazole-5-carbonyl)-2,6-diazaspiro[3.4]octane-8-carboxamide]
  IC50: 100 to 1000 nM

## CNC(=O)[C@@H](NC(=O)[C@H]1CN(C(=O)c2cnn(Cc3ccccc3)c2)CC12CN(C(=O)[C@H]1CC1(C)C)C2)[C@@H](C)OCC1CCC(C(F)(F)F)CC1 (some centres unmarked) [I-141B]
  IC50: 100 to 1000 nM

## CC1(C)C[C@@H]1C(=O)N1CC2(CN(C(=O)c3cnn(Cc4ccccc4)c3)C[C@H]2C(=O)NC[C@H]2CC[C@H](C)CC2)C1 [I-382]
  IC50: 1000 to 10000 nM

## CNC(=O)[C@@H](NC(=O)[C@@H]1CN(C(=O)c2n[nH]c3ccccc23)CC12CN(C(=O)[C@H]1CC1(C)C)C2)[C@@H](C)OCc1ccccc1 [I-112A]
  IC50: 1000 to 10000 nM

## Cc1noc([C@H](C)NC(=O)[C@H]2CN(C(=O)c3cnn(Cc4ccccc4)c3)CC23CN(C(=O)[C@H]2CC2(C)C)C3)n1 [I-158B]
  IC50: > 10000 nM

## CNC(=O)[C@@H](NC(=O)[C@@H]1CN(C(=O)c2cncs2)CC12CN(Cc1ccn[nH]1)C2)[C@@H](C)OCC12CCC(CC1)OC2 [I-351]
  IC50: > 10000 nM

## CNC(=O)[C@@H](NC(=O)[C@@H]1CN(C(=O)c2cn[nH]c2)CC12CN(C(=O)CC1CC1)C2)[C@@H](C)OCc1ccccc1 [I-41A, (S)—N-((2S,3R)-3-(benzyloxy)-1-(methylamino)-1-oxobutan-2-yl)-2-(2-cyclopropylacetyl)-6-(1H-pyrazole-4-carbonyl)-2,6-diazaspiro[3.4]octane-8-carboxamide]
  IC50: > 10000 nM

## C[C@@H](OCC1CCCCC1)[C@H](NC(=O)[C@H]1CN(C(=O)c2cnn(Cc3ccccc3)c2)CC12CN(C(=O)[C@H]1CC1(C)C)C2)C(=O)N1CCC(F)(F)CC1 [I-149B]
  IC50: 100 to 1000 nM

## CCC(CC)C(=O)N1CC2(CN(C(=O)c3cnn(Cc4ccccc4)c3)C[C@H]2C(=O)N[C@H](C(=O)NC)[C@@H](C)OCc2ccccc2)C1 [I-74A]
  IC50: 1000 to 10000 nM

## C[C@H](NC(=O)[C@H]1CN(C(=O)c2cnn(Cc3ccccc3)c2)CC12CN(C(=O)[C@H]1CC1(C)C)C2)c1cccc(F)c1 [I-127B]
  IC50: > 10000 nM

## CC1(C)C[C@@H]1C(=O)N1CC2(CN(C(=O)c3cnn(Cc4ccccc4)c3)C[C@@H]2C(=O)Nc2cccc(-c3ccccc3)c2)C1 [I-63B]
  IC50: 1000 to 10000 nM

## CNC(=O)[C@@H](NC(=O)[C@H]1CN(C(=O)c2sc(C)nc2C)CC12CN(C(=O)[C@H]1CC1(C)C)C2)[C@@H](C)OCC1CCCCC1 [I-213B]
  IC50: > 10000 nM

## CNC(=O)[C@@H](NC(=O)[C@H]1CN(Cc2ccccn2)CC12CN(C(=O)[C@H]1CC1(C)C)C2)[C@@H](C)OCc1ccccc1 [I-40B]
  IC50: > 10000 nM

## CNC(=O)[C@@H](NC(=O)[C@@H]1CN(C(=O)c2cnn(Cc3ccccc3)c2)CC12CN(C(=O)CC1CCC1)C2)[C@@H](C)OCc1ccccc1 [I-27A]
  IC50: 1000 to 10000 nM

## CNC(=O)[C@@H](NC(=O)[C@@H]1CN(C(=O)c2cccnc2)CC12CN(C(=O)[C@H]1CC1(C)C)C2)[C@@H](C)OCc1ccccc1 [I-42A]
  IC50: 1000 to 10000 nM

## CNC(=O)[C@@H](NC(=O)[C@H]1CN(C(=O)c2cnn(Cc3ccc(F)cc3)c2)CC12CN(C(=O)[C@H]1CC1(C)C)C2)[C@@H](C)OCC1CCC(F)(F)CC1 [I-167]
  IC50: 100 to 1000 nM

## C[C@@H](OCC1CCCCC1)[C@H](NC(=O)[C@@H]1CN(C(=O)c2cncs2)CC12CN(C(=O)[C@H]1CC1(F)F)C2)C(=O)N1CCCCC1 [I-296]
  IC50: 10 to 100 nM

## C[C@@H](OCC1CCCCC1)[C@H](NC(=O)C1CN(C(=O)c2cnn(Cc3ccccc3)c2)CC12CN(C(=O)[C@H]1CC1(C)C)C2)C(=O)N1CCOCC1 (some centres unmarked) [I-152 mixture]
  IC50: ≤ 10 nM

## CNC(=O)[C@@H](NC(=O)[C@@H]1CN(C(=O)c2cnn(Cc3ccccc3)c2)CC12CN(C(=O)[C@H]1CC1(C)C)C2)[C@@H](C)OCC1CCC(C(F)(F)F)CC1 (some centres unmarked) [I-141A]
  IC50: 10 to 100 nM

## CNC(=O)[C@@H](NC(=O)[C@@H]1CN(C(=O)c2cnn(Cc3ccccc3)c2)CC12CN(C(=O)C1C(C)(C)C1(C)C)C2)[C@@H](C)OCc1ccccc1 [I-89A]
  IC50: 1000 to 10000 nM

## C[C@@H](OCC1CCC(F)(F)CC1)[C@H](NC(=O)[C@H]1CN(C(=O)c2cnn(Cc3ccc(F)cc3)c2)CC12CN(C(=O)[C@H]1CC1(C)C)C2)C(=O)N1CCC(F)(F)CC1 [I-164B]
  IC50: 10 to 100 nM

## CNC(=O)[C@@H](NC(=O)[C@@H]1CN(Cc2ccncc2)CC12CN(C(=O)[C@H]1CC1(C)C)C2)[C@@H](C)OCc1ccccc1 [I-55A]
  IC50: > 10000 nM

## CNC(=O)[C@@H](NC(=O)[C@@H]1CN(C(=O)c2cnn(Cc3ccccc3)c2)CC12CN(C(=O)[C@H]1CC1(C)C)C2)[C@@H](C)OCC1CCOCC1 [I-119A]
  IC50: 100 to 1000 nM

## CNC(=O)[C@@H](NC(=O)[C@@H]1CN(Cc2cnc[nH]2)CC12CN(C(=O)[C@H]1CC1(C)C)C2)[C@@H](C)OCc1ccccc1 [I-77A, (S)-6-((1H-imidazol-5-yl)methyl)-N-((2S,3R)-3-(benzyloxy)-1-(methylamino)-1-oxobutan-2-yl)-2-((S)-2,2-dimethylcyclopropane-1-carbonyl)-2,6-diazaspiro[3.4]octane-8-carboxamide]
  IC50: > 10000 nM

## CC1(C)C[C@@H]1C(=O)N1CC2(CN(C(=O)c3cnn(Cc4ccccc4)c3)C[C@H]2C(=O)N[C@H]2CCCN(C(=O)C3CCCCC3)C2)C1 [I-182]
  IC50: 1000 to 10000 nM

## C[C@@H](OCC1CCCCC1)[C@H](NC(=O)C1CN(C(=O)c2cnn(Cc3ccccc3)c2)CC12CN(C(=O)[C@H]1CC1(C)C)C2)C(=O)N1CC(C)(C)C1 (some centres unmarked) [I-153 mixture]
  IC50: ≤ 10 nM

## CNC(=O)[C@@H](NC(=O)[C@H]1CN(Cc2n[nH]c3ccccc23)CC12CN(C(=O)[C@H]1CC1(C)C)C2)[C@@H](C)OCc1ccccc1 [I-143]
  IC50: > 10000 nM

## C[C@@H](OCC1CCCCC1)[C@H](NC(=O)[C@@H]1CN(C(=O)c2cnn(CC(F)(F)F)c2)CC12CN(C(=O)[C@H]1CC1(C)C)C2)C(=O)N1CCCCC1 [I-132]
  IC50: 10 to 100 nM
